This passage reports mutagenic call results from PubChem BioAssay AID1259407 (Chemical Carcinogenesis Research Information System (CCRIS), 2018).

This data set relates to CCRIS mutagenicity, Ames/micronucleus/aberration tests. Kind of data set: CCRIS mutagenicity studies.
[1] abbreviates: Test System: AMES SALMONELLA TYPHIMURIUM, Strain/Indicator: TA1537, Metabolic Activation: NONE, Method: STANDARD PLATE.
Setting [2] is: Test System: AMES SALMONELLA TYPHIMURIUM, Strain/Indicator: TA98, Metabolic Activation: NONE, Method: STANDARD PLATE.
Where [3] appears, read: Test System: AMES SALMONELLA TYPHIMURIUM, Strain/Indicator: TA100, Metabolic Activation: NONE, Method: STANDARD PLATE.
Where [4] appears, read: Test System: UDS RAT HEPATOCYTES, Strain/Indicator: THY INCORP, Metabolic Activation: NONE, Method: AUTORADIOGRAPHY

Each structure is given as a SMILES string. Active and inactive are the calls of the source. How the calls were made is not given here.

Consider `C[C@]12CCc3c(ccc4cc(O)ccc34)[C@@H]1CCC2=O`, for which the mutagenic call (Test System: UDS RAT HEPATOCYTES, Strain/Indicator: THY INCORP (18-20 HR), Metabolic Activation: NONE, Method: LIQUID SCINTILLATION COUNTING) is “inactive; negative”.

On to `CN(C)CCNC(=O)c1cccc2c(=O)c3ccccc3[nH]c12`, for which, under setting [1], the mutagenic call is “active; positive”.

As to `CCCCCc1ccco1`, the mutagenic call runs as follows: (Test System: CHINESE HAMSTER V-79, Strain/Indicator: V-79 (HPRT)/6-THIOGUANINE, Metabolic Activation: NONE, Method: STANDARD PLATE) “inactive; negative”; (Test System: CHINESE HAMSTER V-79, Strain/Indicator: V-79 (HPRT)/6-THIOGUANINE, Metabolic Activation: RAT LIVER S-9, Method: STANDARD PLATE) “inactive; negative”.

As to `CCOc1ccc(C(C)(C)C)cc1NC(=O)C(=O)Nc1ccccc1CC`, the mutagenic call is, setting by setting: (Test System: AMES SALMONELLA TYPHIMURIUM, Strain/Indicator: TA97, Metabolic Activation: NONE, Method: STANDARD PLATE) “inactive; negative”; (Test System: AMES SALMONELLA TYPHIMURIUM, Strain/Indicator: TA97, Metabolic Activation: S-9, Method: STANDARD PLATE) “inactive; negative”; under setting [2], “inactive; negative”; (Test System: AMES SALMONELLA TYPHIMURIUM, Strain/Indicator: TA98, Metabolic Activation: S-9, Method: STANDARD PLATE) “inactive; negative”; under setting [3], “inactive; negative”; (Test System: AMES SALMONELLA TYPHIMURIUM, Strain/Indicator: TA100, Metabolic Activation: S-9, Method: STANDARD PLATE) “inactive; negative”. Besides, the mutagenic call was “inactive; negative” (Test System: AMES SALMONELLA TYPHIMURIUM, Strain/Indicator: TA102, Metabolic Activation: NONE, Method: STANDARD PLATE); “inactive; negative” (Test System: AMES SALMONELLA TYPHIMURIUM, Strain/Indicator: TA102, Metabolic Activation: S-9, Method: STANDARD PLATE); “inactive; negative” (Test System: E.COLI, Strain/Indicator: WP2 (PKM101), Metabolic Activation: NONE, Method: STANDARD PLATE); “inactive; negative” (Test System: E.COLI, Strain/Indicator: WP2 (PKM101), Metabolic Activation: S-9, Method: STANDARD PLATE).

With `CC(C)(C)N(CC(O)COc1cccc2c1CC(O)C(O)C2)N=O` (configuration not stated), the mutagenic call is “active; positive” (Test System: UDS HUMAN HEPATOCYTES, Strain/Indicator: THY INCORP, Metabolic Activation: NONE, Method: AUTORADIOGRAPHY) and “active; positive” under setting [4].

In the case of `Cc1ccc(S(=O)(=O)NC2CCCCC2)cc1`, the mutagenic call reads like this: (Test System: AMES SALMONELLA TYPHIMURIUM, Strain/Indicator: TA97, Metabolic Activation: HAMSTER, LIVER, S-9, AROCLOR 1254 (10 OR 30%), Method: PREINCUBATION) “inactive; negative”; (Test System: AMES SALMONELLA TYPHIMURIUM, Strain/Indicator: TA97, Metabolic Activation: NONE, Method: PREINCUBATION) “inactive; negative”; (Test System: AMES SALMONELLA TYPHIMURIUM, Strain/Indicator: TA97, Metabolic Activation: RAT, LIVER, S-9, AROCLOR 1254 (10 OR 30%), Method: PREINCUBATION) “inactive; negative”; (Test System: AMES SALMONELLA TYPHIMURIUM, Strain/Indicator: TA98, Metabolic Activation: HAMSTER, LIVER, S-9, AROCLOR 1254 (10 OR 30%), Method: PREINCUBATION) “inactive; negative”; (Test System: AMES SALMONELLA TYPHIMURIUM, Strain/Indicator: TA98, Metabolic Activation: RAT, LIVER, S-9, AROCLOR 1254 (10%), Method: PREINCUBATION) “inactive; negative”; (Test System: AMES SALMONELLA TYPHIMURIUM, Strain/Indicator: TA98, Metabolic Activation: RAT, LIVER, S-9, AROCLOR 1254 (30%), Method: PREINCUBATION) “inactive; negative”. Moreover, the mutagenic call (Test System: AMES SALMONELLA TYPHIMURIUM, Strain/Indicator: TA100, Metabolic Activation: HAMSTER, LIVER, S-9, AROCLOR 1254 (10 OR 30%), Method: PREINCUBATION) was “inactive; negative”; the mutagenic call (Test System: AMES SALMONELLA TYPHIMURIUM, Strain/Indicator: TA100, Metabolic Activation: NONE, Method: PREINCUBATION) was “inactive; negative”; the mutagenic call (Test System: AMES SALMONELLA TYPHIMURIUM, Strain/Indicator: TA100, Metabolic Activation: RAT, LIVER, S-9, AROCLOR 1254 (10%), Method: PREINCUBATION) was “inactive; negative”; the mutagenic call (Test System: AMES SALMONELLA TYPHIMURIUM, Strain/Indicator: TA100, Metabolic Activation: RAT, LIVER, S-9, AROCLOR 1254 (30%), Method: PREINCUBATION) was “inactive; negative”; the mutagenic call (Test System: AMES SALMONELLA TYPHIMURIUM, Strain/Indicator: TA1535, Metabolic Activation: HAMSTER, LIVER, S-9, AROCLOR 1254 (10 OR 30%), Method: PREINCUBATION) is “inactive; negative”; the mutagenic call (Test System: AMES SALMONELLA TYPHIMURIUM, Strain/Indicator: TA1535, Metabolic Activation: NONE, Method: PREINCUBATION) was “inactive; negative”. Further, the mutagenic call by setting is: (Test System: AMES SALMONELLA TYPHIMURIUM, Strain/Indicator: TA1535, Metabolic Activation: RAT, LIVER, S-9, AROCLOR 1254 (10 OR 30%), Method: PREINCUBATION) “inactive; negative”; (Test System: AMES SALMONELLA TYPHIMURIUM, Strain/Indicator: TA1537, Metabolic Activation: HAMSTER, LIVER, S-9, AROCLOR 1254 (30%), Method: PREINCUBATION) “inactive; negative”; (Test System: AMES SALMONELLA TYPHIMURIUM, Strain/Indicator: TA1537, Metabolic Activation: NONE, Method: PREINCUBATION) “inactive; negative”; (Test System: AMES SALMONELLA TYPHIMURIUM, Strain/Indicator: TA1537, Metabolic Activation: RAT, LIVER, S-9, AROCLOR 1254 (30%), Method: PREINCUBATION) “inactive; negative”.

On to `NC(=O)OC[C@@H]1[C@H](NC(=O)/C(=N\OCC(=O)O)c2csc(N)n2)C(=O)N1S(=O)(=O)O`, for which the mutagenic call is “inactive; negative” (Test System: AMES SALMONELLA TYPHIMURIUM, Strain/Indicator: TA98, Metabolic Activation: NONE); “inactive; negative” (Test System: AMES SALMONELLA TYPHIMURIUM, Strain/Indicator: TA98, Metabolic Activation: S-9); “inactive; negative” (Test System: AMES SALMONELLA TYPHIMURIUM, Strain/Indicator: TA100, Metabolic Activation: NONE); “inactive; negative” (Test System: AMES SALMONELLA TYPHIMURIUM, Strain/Indicator: TA100, Metabolic Activation: S-9); “inactive; negative” (Test System: AMES SALMONELLA TYPHIMURIUM, Strain/Indicator: TA1537, Metabolic Activation: NONE); “inactive; negative” (Test System: AMES SALMONELLA TYPHIMURIUM, Strain/Indicator: TA1537, Metabolic Activation: S-9). The mutagenic call (Test System: E. COLI, Strain/Indicator: WP2 (HCR), Metabolic Activation: NONE) is “inactive; negative” and the mutagenic call (Test System: E. COLI, Strain/Indicator: WP2 (HCR), Metabolic Activation: S-9) was “inactive; negative”.

In the case of `CCc1cccc2c3c([nH]c12)C(CC)(CC(=O)O)OCC3` (configuration not stated), the mutagenic call under setting [2] is “inactive; negative”; the mutagenic call (Test System: AMES SALMONELLA TYPHIMURIUM, Strain/Indicator: TA98, Metabolic Activation: RAT, LIVER, S-9, AROCLOR 1254, Method: STANDARD PLATE) is “inactive; negative”; the mutagenic call under setting [3] was “inactive; negative”; the mutagenic call (Test System: AMES SALMONELLA TYPHIMURIUM, Strain/Indicator: TA100, Metabolic Activation: RAT, LIVER, S-9, AROCLOR 1254, Method: STANDARD PLATE) was “inactive; negative”; the mutagenic call (Test System: AMES SALMONELLA TYPHIMURIUM, Strain/Indicator: TA1535, Metabolic Activation: NONE, Method: STANDARD PLATE) is “inactive; negative”; the mutagenic call (Test System: AMES SALMONELLA TYPHIMURIUM, Strain/Indicator: TA1535, Metabolic Activation: RAT, LIVER, S-9, AROCLOR 1254, Method: STANDARD PLATE) was “inactive; negative”. For the same molecule, the mutagenic call under setting [1] is “inactive; negative”; the mutagenic call (Test System: AMES SALMONELLA TYPHIMURIUM, Strain/Indicator: TA1537, Metabolic Activation: RAT, LIVER, S-9, AROCLOR 1254, Method: STANDARD PLATE) is “inactive; negative”; the mutagenic call (Test System: E. COLI, Strain/Indicator: WP2 UVRA, Metabolic Activation: NONE, Method: STANDARD PLATE) was “inactive; negative”; the mutagenic call (Test System: E. COLI, Strain/Indicator: WP2 UVRA, Metabolic Activation: RAT, LIVER, S-9, AROCLOR 1254, Method: STANDARD PLATE) is “inactive; negative”.

For `CC(C)=CC(=O)C=C(C)C`, where the note is “Test System: MOUSE LYMPHOMA, Strain/Indicator: L5178Y (TK+/TK-), Metabolic Activation: NONE, Method: SUSPENSION/PLATE”, the mutagenic call was “inactive; negative”.

As to `CC/C1=C/[C@@H](C)[C@](C)(OC(C)=O)C(=O)OC/C2=C/CN(C)CC[C@@H](OC1=O)C2=O`, the mutagenic call under setting [4] was “active; positive”.
